Laboratory results: BindingDB's records for doi:10.1021/jm970110p (Universit&#233, 1998)
pEC50: −log10 of the molar value.

Target: Reverse transcriptase/RNaseH (Human immunodeficiency virus 1, UniProt Q72547)
Assay: Inhibitory concentration against HIV-1 reverse transcriptase

Compound: CCc1c(Cc2ccccc2)[n]([Au])c(=O)[nH]c1=O [6-Benzyl-5-ethyl-1-aurus-1H-pyrimidine-2,4-dione]
- pEC50: 6.68

Compound: CC(C)c1c(Cc2ccccc2)[n]([Au])c(=O)[nH]c1=O [6-Benzyl-5-isopropyl-1-aurus-1H-pyrimidine-2,4-dione]
- pEC50: 7.38
